Test results published in publication PMC2812684 (Biochimica et biophysica acta, 2009).
Read-outs that look alike come from different tables or passages of the source.

How the values were obtained:
Type in all cases: cell-based
[1] = molecular target: T1, succinate dehydrogenase (complex II) (Rattus norvegicus, UniProt Q920L2); test: Inhibition of respiration by 3-nitropropionic acid in whole; details: endogenous substrates
[2] = molecular target: T1, succinate dehydrogenase (complex II); details: for IC50: IC50 Complex II
[3] = molecular target: T2, cytochrome bc1 oxidoreductase (complex III) (Rattus norvegicus, UniProt P00159); details: for decrease of IC50 with exogenous vs endogenous substrates: excess exogenous glutamate, malate, succinate
[4] = molecular target: T2, cytochrome bc1 oxidoreductase (complex III); test: Inhibition of respiration by antimycin A in whole; details: endogenous substrates

T1 sequence (Q920L2 whole entry, looked up, one chain of several): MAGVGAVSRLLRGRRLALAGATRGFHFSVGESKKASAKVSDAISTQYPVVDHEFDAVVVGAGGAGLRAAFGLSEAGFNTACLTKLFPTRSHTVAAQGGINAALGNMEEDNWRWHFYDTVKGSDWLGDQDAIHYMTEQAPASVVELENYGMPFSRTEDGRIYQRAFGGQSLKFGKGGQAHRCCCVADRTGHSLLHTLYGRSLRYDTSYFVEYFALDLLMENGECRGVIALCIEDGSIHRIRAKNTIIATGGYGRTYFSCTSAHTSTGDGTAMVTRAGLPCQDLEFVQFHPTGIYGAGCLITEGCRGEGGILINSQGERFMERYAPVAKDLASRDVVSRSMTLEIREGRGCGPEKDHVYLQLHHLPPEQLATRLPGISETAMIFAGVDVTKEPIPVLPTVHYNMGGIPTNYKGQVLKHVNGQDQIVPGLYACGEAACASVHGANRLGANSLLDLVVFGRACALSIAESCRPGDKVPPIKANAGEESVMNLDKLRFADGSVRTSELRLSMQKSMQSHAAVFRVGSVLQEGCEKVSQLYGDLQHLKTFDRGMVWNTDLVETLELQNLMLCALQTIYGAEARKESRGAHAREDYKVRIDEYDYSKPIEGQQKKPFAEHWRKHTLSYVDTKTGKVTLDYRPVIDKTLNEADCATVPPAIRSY

Structure (SMILES)	percent of initial rate remaining at flux point ([1]; 8 mM 3-NP, neurons from middle-age rats) [%]	increase of IC50 with age ([1]; old vs middle-age neurons, insignificant) [%]	IC50 ([2]; MA) [µM]	IC50 ([2]; Old) [µM]	increase of IC50 with exogenous vs endogenous substrates ([2]; neurons from middle-age rats, complex I inhibited, excess exogenous succinate) [%]	decrease of IC50 with exogenous vs endogenous substrates ([2]; neurons from old rats, complex I inhibited, excess exogenous succinate) [%]	decrease of IC50 with age ([2]; old vs middle-age permeabilized neurons, exogenous substrates, insignificant) [%]	decrease of IC50 with exogenous vs endogenous substrates ([3]; neurons from middle-age rats) [%]	decrease of IC50 with exogenous vs endogenous substrates ([3]; neurons from old rats) [%]	decrease of IC50 with age ([3]; old vs middle-age permeabilized neurons, exogenous substrates, p=0.0001) [%]	IC50 ([4]; IC50 Complex III, Old, neurons from old (24 month) rats) [µM]	decrease of IC50 with age ([4]; old vs middle-age neurons, p=0.006) [%]
O=C(O)CC[N+](=O)[O-] [3-NP, 3-nitropropionic acid]	39	49	6100	2100	7	75	66	–	–	–	–	–
CCCCCC[C@H]1C(=O)O[C@H](C)[C@H](NC(=O)c2cccc(NC=O)c2O)C(=O)O[C@@H](C)[C@@H]1OC(=O)CC(C)C [antimycin A]	–	–	–	–	–	–	–	46	68	60	0.16	35
